The values below are quoted from earlier work in patent US20060036094A1 (priority 2004, published 2006).

The test system of the data set is phorbol myristate-induced inflammation.

Turning to zoanthamine, the “inhibitory activity toward phorbol myristate-induced inflammation” value is “potent inhibitory activity”.
